{"source": "patent US20200323813A1", "about": "“TREATMENT OF VIRAL HEMORRHAGIC FEVERS WITH COX-2 SELECTIVE NON-STEROIDAL ANTI-INFLAMMATORY DRUGS” (Tremeau Pharmaceuticals, Inc., priority 2019, published 2020)", "origin": "cited, not measured here", "key": {"[1]": {"details": "versus non-selective NSAIDs"}, "[2]": {"details": "oral once daily product"}, "[3]": {"system": "platelet aggregation or bleeding time", "details": "doses up to 375 mg/day"}, "[4]": {"system": "COX-2 versus COX-1"}}}
{"smiles": "CS(=O)(=O)c1ccc(C2=C(c3ccccc3)C(=O)OC2)cc1", "note": "[Rofecoxib, 4-[4-(methylsulfonyl)phenyl]-3-phenyl-2(5H)-furanone]", "values": [{"measurement": "median onset of action", "setting": "acute pain settings", "result": 45, "unit": "min"}, {"measurement": "sustained efficacy (duration)", "setting": "single dose", "result": 24, "unit": "h"}, {"measurement": "GI tolerability and safety events", "setting": "[1]", "result": "significant improvements"}, {"measurement": "half-live", "setting": "[2]", "result": "approximately 17 hours"}, {"measurement": "effect on bleeding time", "setting": "[3]", "result": "not affect"}, {"measurement": "effect on platelet aggregation", "setting": "[3]", "result": "not affect"}, {"measurement": "COX-2 versus COX-1 selectivity", "setting": "[4]", "result": 35, "unit": "fold"}]}
